{"source": "patent US12018283B2", "about": "“Method for producing insulin-producing cells” (KATAOKA CORPORATION, priority 2018, dated 2024)", "test_system": "human fibroblasts", "assay": "Direct induction from human fibroblasts into insulin-producing cells (immunostaining, morphology)", "assay_type": "cell-based", "details": "from Table 1 and FIGS. 3 and 4; removal of one compound at a time"}
{"smiles": "O=c1cc(N2CCOCC2)oc2c(-c3ccccc3)cccc12", "note": "[LY294002]", "values": [{"measurement": "importance for conversion into cells expressing insulin", "value": "of particular importance"}]}
{"smiles": "C=C[C@@]1(C)CC(=O)[C@]2(O)[C@@]3(C)[C@@H](O)CCC(C)(C)[C@@H]3[C@H](O)[C@H](OC(C)=O)[C@@]2(C)O1", "note": "[forskolin, Forskolin]", "values": [{"measurement": "importance for conversion into cells expressing insulin", "value": "of particular importance"}]}
